Results as given in publication PMC10958001, “THOUSAND-GRAIN WEIGHT 6, which is an IAA-glucose hydrolase, preferentially recognizes the structure of the indole ring” (Scientific Reports, 2024).

Tests used:
[1] = target: T1, TGW6 (THOUSAND-GRAIN WEIGHT 6), IAA-glucose hydrolase (Oryza sativa, UniProt Q69U01); test: […] NMR fragment screening (CPMG R2 filter); assay type: binding; conditions: 298 K
T1 construct: gene Os06g0623700; recombinant; N-terminal Trx-(His)6 tag cleaved with thrombin; E. coli Rosetta-gami 2(DE3); purified
T1 sequence (Q69U01 31-350): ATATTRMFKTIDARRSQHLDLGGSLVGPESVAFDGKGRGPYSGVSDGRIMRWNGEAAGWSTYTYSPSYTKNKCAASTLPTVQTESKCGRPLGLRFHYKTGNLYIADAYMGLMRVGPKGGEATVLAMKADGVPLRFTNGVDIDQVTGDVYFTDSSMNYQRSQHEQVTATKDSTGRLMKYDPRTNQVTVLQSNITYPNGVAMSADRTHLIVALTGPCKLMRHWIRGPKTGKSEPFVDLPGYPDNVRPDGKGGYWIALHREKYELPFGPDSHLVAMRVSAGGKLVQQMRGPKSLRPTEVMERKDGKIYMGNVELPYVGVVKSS

[2] = target: T1, TGW6 (THOUSAND-GRAIN WEIGHT 6), IAA-glucose hydrolase; test: thermal shift (UNCLE, intrinsic Trp fluorescence BCM); assay type: binding; conditions: 27.6 μM TGW6, 55.0 μM ligand, 2 mM CaCl2, pH 7.0
[3] = 10 μM TGW6, 50 μM fragment in mixture

Tm shift [2] | Compound | other results
> 3 °C | O=C(O)CCCc1c[nH]c2ccccc12 [IBA, indole 3-butyric acid] | –
> 3 °C | COC(=O)Cc1c[nH]c2ccccc12 [MeIAA, methyl indole 3-acetate] | –
~ 7 °C | O=C(O)Cc1c[nH]c2cccc(F)c12 [PK0-38501, 2-(4-Fluoro-1H-indol-3-yl)acetic acid] | ΔIntensity (%) [1, 3]: − 46.5
~ 9 °C | O=C(O)Cc1c[nH]c2c(F)cccc12 [PK0-38511, 2-(7-Fluoro-1H-indol-3-yl)acetic acid] | ΔIntensity (%) ([1]; 10 μM TGW6, 50 μM fragment in mixture, competitive with IAA-Glc): − 50.3

Further lines, the molecule ahead of its results:

Compound | Tm shift [2] | other results
O=[N+]([O-])c1ccc(OCC2CCCO2)c(F)c1 (stereo not shown) [CK0-00681, 2-[(2-Fluoro-4-nitrophenoxy)methyl]tetrahydrofuran] | – | ΔIntensity (%) ([1]; 10 μM TGW6, 50 μM fragment in mixture, not competitive with IAA-Glc, different site implied): − 100.0
O=[N+]([O-])c1c(F)cccc1N1CCC(O)CC1 [CK0-02991, 1-(3-Fluoro-2-nitrophenyl)piperidin-4-ol] | – | ΔIntensity (%) [1, 3]: − 57.9
O=[N+]([O-])c1ccc(OC2CCOCC2)c(F)c1 [CK0-03011, 4-(2-Fluoro-4-nitrophenoxy)tetrahydro-2H-pyran] | – | ΔIntensity (%) [1, 3]: − 45.4
O=C(O)Cc1c[nH]c2ccccc12 [IAA, indole-3-acetic acid] | > 3 °C | –
C[C@H](NC(=O)Cc1c[nH]c2ccccc12)C(=O)O [IAA-Ala] | ~ 10 °C | –
O=C(Cc1c[nH]c2ccccc12)O[C@@H]1O[C@H](CO)[C@@H](O)[C@H](O)[C@H]1O [IAA-Glc, 1-O-indole-3-ylacetyl-β-D-glucose] | ~ 5 °C | –
O=C(O)C(c1c[nH]c2ccc(F)cc12)C(F)(F)F (stereo not shown) [PK0-42071, 3,3,3-Trifluoro-2-(5-fluoro-1H-indol-3-yl)propanoic acid] | – | ΔIntensity (%) ([1]; 10 μM TGW6, CF3-containing fragment at 17.5 μM in mixture): − 46.0
